PubChem BioAssay AID652053 (Broad Institute, 2013)

System: Huh7 psiCHECK-miR122 Renilla luciferase reporter, 48 h
Experiment: miR-122 inhibitors in Huh7 reporter cells, dose response, cell-based, Huh7 psiCHECK-miR122, Renilla luciferase, cherry-pick (AID 652053)

SMILES | AC40 [µM]
Cc1ccc(O)c(NC(=O)c2cccc(S(=O)(=O)N3CCCCC3)c2)c1 | 2.39
CC(C)(C)NS(=O)(=O)c1ccc(NC(=S)NC(=O)C2CC2)cc1 | 1.86
CCOC(=O)/C(=N/Nc1ccc(Cl)cc1)S(=O)(=O)c1ccccc1 | 3.28
CCC(C(=O)Nc1ccc(N2CCOCC2)c(S(=O)(=O)Nc2ccccc2OC)c1)c1ccccc1 (stereo unspecified) | 1.11
C[C@H](CO)N1C[C@H](C)[C@@H](CN(C)Cc2ccc3c(c2)OCO3)Oc2c(NC(=O)C3CCCCC3)cccc2C1=O | 5.43
CCCCCNS(=O)(=O)c1cc2c3c(c1)CCC(=O)N3CCC2 | 4.75
COc1ccccc1C(=O)Nc1ccc2c(c1)C(=O)N(C)[C@H]1CC[C@H](CC(=O)NCc3ccc(Cl)c(Cl)c3)O[C@H]1CO2 | 0.333
Cc1cc(NS(=O)(=O)c2ccccc2)cc(Cl)c1O | 21.1
COC(=O)c1c(NC(=O)c2ccc(C)c(S(=O)(=O)Nc3ccccc3C)c2)sc2c1CCCC2 | < 0.26
COc1cc(NS(=O)(=O)c2ccc(NC(=S)NC(=O)c3ccco3)cc2)nc(OC)n1 | 7.11
O=C(c1ccccc1F)N1CC[C@@H]2[C@@H](CO)Nc3ccc(-c4cccc(F)c4)cc3[C@@H]21 | 1.29
O=C(Cc1ccccc1)N1C[C@@H]2[C@H](c3ccccc31)[C@H](CO)N2C(=O)Nc1ccc(F)cc1 | 4.71
CC(=O)N1CCc2cc(Br)cc(S(=O)(=O)NCc3ccc(Cl)cc3)c21 | 4.29
C[C@@H]1CN([C@H](C)CO)C(=O)c2cc(NC(=O)Cc3ccccc3)ccc2O[C@@H]1CN(C)S(=O)(=O)c1ccc(Cl)cc1 | 1.31
CCn1cc(S(=O)(=O)CC(=O)Nc2ccc(C)cc2)c2ccccc21 | 15.1
CCOc1ccc(NS(=O)(=O)c2cc(C)c(C)cc2C)cc1 | 2.04
Cc1ccccc1-c1cnc(C(O)c2ccc(F)c(F)c2)[nH]1 (stereo unspecified) | 6.78
O=C(CCc1ccc(S(=O)(=O)NCCc2ccccc2)cc1)NCc1ccc2c(c1)OCO2 | 8.53
CCCC(=O)NC(=S)Nc1ccc(S(=O)(=O)Nc2ccc(OCC)cc2)cc1 | 1.42
CCOc1ccc(S(=O)(=O)/N=C(/Nc2ccc(C)c(S(=O)(=O)N3CCOCC3)c2)c2ccccc2)cc1 | 2.23
OC(c1ccc(F)cc1)c1ncc(-c2ccccc2F)[nH]1 (stereo unspecified) | 5.16
CCCCNS(=O)(=O)c1ccc2nc(SCC(=O)Nc3sccc3C#N)[nH]c2c1 | 0.553
C[C@@H]1CN([C@@H](C)CO)C(=O)c2cccc(NC(=O)c3ccncc3)c2O[C@@H]1CN(C)C | 12
COc1ccc(NS(=O)(=O)c2ccc(N3CCOCC3)c(NC(=O)c3cccc(F)c3)c2)cc1 | 8.96
O=C(c1cccc(F)c1)N1C[C@H]2[C@@H](c3ccccc31)[C@@H](CO)N2C(=O)c1ccc(F)cc1 | 1.08
C[C@H](CO)N1C[C@H](C)[C@H](CN(C)Cc2ccc(C(=O)Nc3ccccc3N)cc2)Oc2ccc(NS(=O)(=O)c3ccc(F)cc3)cc2CC1=O | 7.93

SMILES | AC40 [µM]
CCc1ccc(-c2cc(C)no2)cc1S(=O)(=O)NCCc1ccc(OC)c(OC)c1 | 7.43
COc1ccc(NS(=O)(=O)c2cc(-c3cnc(C4CC4)o3)ccc2C)cc1 | 5.35
C[C@@H]1CN([C@H](C)CO)C(=O)Cc2cc(N(C)C)ccc2O[C@H]1CN(C)Cc1ccc(C(=O)Nc2ccccc2N)cc1 | 10.3
O=S(=O)(NCc1cccs1)c1cccc(S(=O)(=O)N2CCCCC2)c1 | 6.72
COc1cc(C)c(Cl)cc1S(=O)(=O)NCc1ccco1 | 1.18
Cc1ccc(S(=O)(=O)N(C)C[C@H]2Oc3ccc(NC(=O)CCC(F)(F)F)cc3C(=O)N([C@@H](C)CO)C[C@H]2C)cc1 | 12.1
CN1c2ccc(-c3cccc(F)c3)cc2[C@H]2[C@H](CCN2C(=O)c2ccccc2F)[C@H]1CO | 0.528
O=S(=O)(NCc1ccccc1)c1ccc2c(c1)OCCO2 | 3.42
CC(=O)N1c2c(cc(Br)cc2S(=O)(=O)NCC2COc3ccccc3O2)CC1C (stereo unspecified) | 4.53
Cc1cc(F)ccc1C(O)c1ncc(-c2ccccc2F)[nH]1 (stereo unspecified) | 5.29
C[C@@H]1CN([C@H](C)CO)C(=O)c2cccc(NC(=O)c3ccc(-c4nccs4)cc3)c2O[C@@H]1CN(C)Cc1ccc(C(=O)Nc2ccccc2N)cc1 | 6.24
O=S(=O)(Nc1ccc2cn[nH]c2c1)c1cc(Br)ccc1Br | 4.32
COc1cc(C)c(S(=O)(=O)Nc2ccccc2F)cc1C | 3.14
Cc1ccc(C)c(S(=O)(=O)Nc2ccc(C(=O)N3CCCCC3)cc2)c1 | 3.58
CC(=O)N1CC(C)Sc2ccc(S(=O)(=O)NCc3ccc(F)cc3)cc21 (stereo unspecified) | 4.49
O=S1(=O)N=CN(Cc2cccc(F)c2)c2ccccc21 | 3.02
N#CC1c2ccccc2-c2ccccc2N1C(=O)c1ccccc1 (stereo unspecified) | 8.39
O=S(=O)(Nc1ccc(Cl)cc1)c1cccc2cccnc12 | 4.21
Cc1ccc(Cn2c(NS(=O)(=O)c3ccccc3)nc3ccccc32)cc1 | 2
COc1ccc(C(C)(C)C)cc1NS(=O)(=O)c1cccc2cccnc12 | 2.14
Cc1cccc(NS(=O)(=O)c2ccc(C)c(C(=O)OCC(=O)Nc3cc(C)on3)c2)c1 | 4.46
COc1ccc(NC(C)=O)cc1S(=O)(=O)Nc1ccc(S(=O)(=O)N2CCCCC2)cc1 | 2.62
CCNS(=O)(=O)c1ccc(NS(=O)(=O)c2cc(C)ccc2C)cc1 | 1.86
CN1C(=O)c2cc(NC(=O)Cc3ccccc3)ccc2OC[C@@H]2O[C@H](CC(=O)NCc3ccc(Cl)cc3)CC[C@@H]21 | < 0.26
O=C1NC(c2cccc3ccccc23)Nc2ccccc21 (stereo unspecified) | 5.65
